Data: ChEMBL document CHEMBL1156643, “Kempopeptins A and B, serine protease inhibitors with different selectivity profiles from a marine cyanobacterium, Lyngbya sp” (J Nat Prod, 2008)

What was measured:
[1] = Inhibition of bovine alpha chymotrypsin; parameters: species or system Bos taurus
Pancreatic elastase = Pancreatic elastase (Sus scrofa, UniProt P08419+P00772); test: Inhibition of pig pancreatic elastase; format: protein assay
[2] = Inhibition of pig pancreatic trypsin; parameters: species or system Sus scrofa

Row | Structure (SMILES) | IC50 [1] | IC50 (Pancreatic elastase) | IC50 [2]
1 | CC(=O)N1CCC[C@H]1C(=O)N[C@H](C(=O)N[C@@H]1C(=O)N[C@@H](CC(C)C)C(=O)N[C@H]2CC[C@@H](O)N(C2=O)[C@@H](Cc2ccccc2)C(=O)N(C)[C@@H](Cc2ccc(O)cc2)C(=O)N[C@@H](C(C)C)C(=O)O[C@@H]1C)[C@@H](C)O [KEMPOPEPTIN A] | 320 nM | 2.6 µM | > 67 µM
2 | C/C=C1\NC(=O)[C@@H](NC(=O)[C@H](CCC(N)=O)NC(=O)CCC)[C@@H](C)OC(=O)[C@H](C(C)C)NC(=O)[C@H](Cc2ccc(O)cc2)N(C)C(=O)[C@H](Cc2ccccc2)N2C(=O)[C@H](CC[C@H]2O)NC1=O [SOMAMIDE B] | 9.5 nM | 4.2 µM | > 30 µM
3 | C/C=C1\NC(=O)[C@@H](NC(=O)[C@H](CCC(N)=O)NC(=O)CCCCC)[C@@H](C)OC(=O)[C@H](C(C)C)NC(=O)[C@H](Cc2ccc(O)cc2)N(C)C(=O)[C@H](Cc2ccccc2)N2C(=O)[C@H](CC[C@H]2O)NC1=O [LYNGBYASTATIN 7] | – | – | > 30 µM
4 | CCCC(=O)N[C@H](C(=O)N[C@@H]1C(=O)N[C@@H](CCCCN)C(=O)N[C@H]2CC[C@@H](O)N(C2=O)[C@@H]([C@@H](C)CC)C(=O)N(C)[C@@H](Cc2ccc(OC)c(Br)c2)C(=O)N[C@@H](C(C)C)C(=O)O[C@@H]1C)C(C)C [KEMPOPEPTIN B] | > 67000 nM | > 67 µM | 8.4 µM
